Data: ChEMBL document CHEMBL5131471, “Design, synthesis and mechanism studies of novel dual PARP1/BRD4 inhibitors against pancreatic cancer” (Eur J Med Chem, 2022)
The source made the active and inactive calls. The rule behind the calls is not given here.

Experiments:
SW1990 [1] = assay: Upregulation of PARP1 expression in human SW1990 cells at 6 uM measured after 4 days by Western blot analysis; assay type: functional, cell-based; details: time 4.0 day
Mus musculus [2] = assay: Upregulation of CCNB1 expression in nude mouse xenografted with human SW1990 cells at 45 mg/kg, ip measured after 4 days by Western blot analysis; assay type: functional, organism-based; details: time 4.0 day
Mus musculus [3] = assay: Upregulation of CCND1 expression in nude mouse xenografted with human SW1990 cells at 45 mg/kg, ip measured after 4 days by Western blot analysis; assay type: functional, organism-based; details: time 4.0 day
SW1990 [4] = assay: Effect on MDC1 gene expression in human SW1990 cells at 6 uM by Q-PCR analysis; assay type: functional, cell-based
SW1990 [5] = assay: Upregulation of BRCA2 expression in human SW1990 cells at 6 uM measured after 4 days by Western blot analysis; assay type: functional, cell-based; details: time 4.0 day
[6] = Toxicity in nude mouse xenografted with human SW1990 cells assessed as kidney damage at 45 mg/kg, ip administered for 28 days by H and E staining based fluorescence microscopic analysis; assay type: organism-based; details: in vivo, 672 h, time 28 day
[7] = Toxicity in nude mouse xenografted with human SW1990 cells assessed as lung damage at 45 mg/kg, ip administered for 28 days by H and E staining based fluorescence microscopic analysis; assay type: organism-based; details: in vivo, 672 h, time 28 day
Mus musculus [8] = assay: Upregulation of E2F2 expression in nude mouse xenografted with human SW1990 cells at 45 mg/kg, ip measured after 4 days by Q-PCR analysis; assay type: functional, organism-based; details: time 4.0 day
Mus musculus [9] = assay: Upregulation of CDK6 expression in nude mouse xenografted with human SW1990 cells at 45 mg/kg, ip measured after 4 days by Western blot analysis; assay type: functional, organism-based; details: time 4.0 day
SW1990 [10] = assay: Effect on CCNB1 gene expression in human SW1990 cells at 6 uM by Q-PCR analysis; assay type: functional, cell-based
SW1990 [11] = assay: Upregulation of CDC25B expression in human SW1990 cells at 6 uM measured after 4 days by Western blot analysis; assay type: functional, cell-based; details: time 4.0 day
SW1990 [12] = assay: Upregulation of ALDH1A1 expression in human SW1990 cells at 6 uM measured after 4 days by Western blot analysis; assay type: functional, cell-based; details: time 4.0 day
SW1990 [13] = assay: Effect on FOXM1 gene expression in human SW1990 cells at 6 uM by Q-PCR analysis; assay type: functional, cell-based
SW1990 [14] = assay: Effect on TOPBP1 gene expression in human SW1990 cells at 4 uM by Q-PCR analysis; assay type: functional, cell-based
[15] = Toxicity in nude mouse xenografted with human SW1990 cells assessed as heart damage at 15 mg/kg, ip administered for 28 days in presence of 45 mg/kg Olaparib by H and E staining based fluorescence microscopic analysis; assay type: organism-based; details: in vivo, 672 h, time 28 day
SW1990 [16] = assay: Effect on CCNB1 gene expression in human SW1990 cells at 4 uM by Q-PCR analysis; assay type: functional, cell-based
SW1990 [17] = assay: Effect on HEXIM1 gene expression in human SW1990 cells at 4 uM by Q-PCR analysis; assay type: functional, cell-based
SW1990 [18] = assay: Effect on TOPBP1 gene expression in human SW1990 cells at 1 uM in presence of Olaparib by Q-PCR analysis; assay type: functional, cell-based
Mus musculus [19] = species: Mus musculus; details: dose 15.0 mg/kg, route ip, time 28.0 day
SW1990 [20] = assay: Effect on CDC25B gene expression in human SW1990 cells at 1 uM in presence of Olaparib by Q-PCR analysis; assay type: functional, cell-based
[21] = Toxicity in nude mouse xenografted with human SW1990 cells assessed as spleen damage at 15 mg/kg, ip administered for 28 days in presence of 45 mg/kg Olaparib by H and E staining based fluorescence microscopic analysis; assay type: organism-based; details: in vivo, 672 h, time 28 day
SW1990 [22] = assay: Effect on HEXIM1 gene expression in human SW1990 cells at 1 uM in presence of Olaparib by Q-PCR analysis; assay type: functional, cell-based
SW1990 [23] = assay: Effect on MDC1 gene expression in human SW1990 cells at 1 uM in presence of Olaparib by Q-PCR analysis; assay type: functional, cell-based
[24] = Toxicity in nude mouse xenografted with human SW1990 cells assessed as kidney damage at 15 mg/kg, ip administered for 28 days by H and E staining based fluorescence microscopic analysis; assay type: organism-based; details: in vivo, 672 h, time 28 day
Mus musculus [25] = assay: Inhibition of CDK1 expression in nude mouse xenografted with human SW1990 cells at 30 mg/kg, ip measured after 4 days by Western blot analysis; assay type: functional, organism-based; details: time 4.0 day
Mus musculus [26] = assay: Inhibition of homologous recombinant repair in nude mouse xenografted with human SW1990 cells assessed as reversal of olaparib-induced BRCA1 expression at 30 mg/kg, ip measured after 4 days by Western blot analysis; assay type: functional, organism-based; details: time 4.0 day
Mus musculus [27] = assay: Inhibition of CCND1 expression in nude mouse xenografted with human SW1990 cells at 30 mg/kg, ip measured after 4 days by Western blot analysis; assay type: functional, organism-based; details: time 4.0 day
Mus musculus [28] = assay: Inhibition of CCNB1 expression in nude mouse xenografted with human SW1990 cells at 30 mg/kg, ip measured after 4 days by Western blot analysis; assay type: functional, organism-based; details: time 4.0 day
SW1990 [29] = assay: Induction of cell cycle arrest in human SW1990 cells assessed as accumulation of cells at G2/M phase at 2 uM incubated for 4 days by propidium iodide staining based flow cytometry (reference value: 5.89%); assay type: functional; details: time 4 day
SW1990 [30] = assay: Effect on CDK1 to 2 gene expression in human SW1990 cells at 1 to 2 uM by Q-PCR analysis; assay type: functional, cell-based; details: dose 1-2 µM
[31] = Toxicity in nude mouse xenografted with human SW1990 cells assessed as heart damage at 30 mg/kg, ip administered for 28 days by H and E staining based fluorescence microscopic analysis; assay type: organism-based; details: in vivo, 672 h, time 28 day
SW1990 [32] = assay: Effect on FOXO1 gene expression in human SW1990 cells at 1 to 2 uM by Q-PCR analysis; assay type: functional, cell-based; details: dose 1-2 µM
Mus musculus [33] = assay: Inhibition of E2F2 expression in nude mouse xenografted with human SW1990 cells at 30 mg/kg, ip measured after 4 days by Western blot analysis; assay type: functional, organism-based; details: time 4.0 day
Mus musculus [34] = assay: Inhibition of CDK1 expression in nude mouse xenografted with human SW1990 cells at 30 mg/kg, ip measured after 4 days by Q-PCR analysis; assay type: functional, organism-based; details: time 4.0 day
Mus musculus [35] = assay: Inhibition of PARP1 expression in nude mouse xenografted with human […] cells at 30 mg/kg, ip administered for 28 days by Western blot analysis; assay type: functional, organism-based; details: time 28.0 day
SW1990 [36] = assay: Induction of apoptosis in human SW1990 cells assessed as necrotic cells at 1 uM measured after 4 days by Annexin V-FITC and propidium iodide staining based flow cytometry (reference value: 2.45%); assay type: functional; details: time 4 day
SW1990 [37] = assay: Effect on CDK1 gene expression in human SW1990 cells at 1 to 2 uM by Q-PCR analysis; assay type: functional, cell-based; details: dose 1-2 µM
Mus musculus [38] = assay: Inhibition of homologous recombinant repair in nude mouse xenografted with human SW1990 cells assessed as reversal of olaparib-induced HEXIM1 expression at 30 mg/kg, ip measured after 4 days by Western blot analysis; assay type: functional, organism-based; details: time 4.0 day
SW1990 [39] = assay: Inhibition of colony formation in human SW1990 cells at 1 uM after 14 days by crystal violet staining based microscopic analysis; assay type: functional, cell-based; details: time 14.0 day
SW1990 [40] = assay: Inhibition of E2F2 protein expression in human SW1990 cells at 1 to 2 uM measured after 4 days by Western blot analysis; assay type: functional, cell-based; details: dose 1-2 µM, time 4.0 day

## O=C(c1cc(Cc2n[nH]c(=O)c3ccccc23)ccc1F)N1CCN(C(=O)C2CC2)CC1 [OLAPARIB]
SW1990 [1]
  Activity: Active
Mus musculus [2]
  Activity: Active
Mus musculus [3]
  Activity: Active
SW1990 [4]
  Activity: Active
SW1990 [5]
  Activity: Active
[6]
  Activity: Non-Toxic
[7]
  Activity: Non-Toxic
Mus musculus [8]
  Activity: Active
Mus musculus [9]
  Activity: Active
SW1990 [10]
  Activity: Active
SW1990 [11]
  Activity: Active
SW1990 [12]
  Activity: Active
SW1990 [13]
  Activity: Active

## Cc1sc2c(c1C)C(c1ccc(Cl)cc1)=N[C@@H](CC(=O)OC(C)(C)C)c1nnc(C)n1-2
SW1990 [14]
  Activity: Active
[15]
  Activity: Non-Toxic
SW1990 [16]
  Activity: Active
SW1990 [17]
  Activity: Active
SW1990 [18]
  Activity: Active
Mus musculus [19]
  inhibition: Active
SW1990 [20]
  Activity: Active
[21]
  Activity: Non-Toxic
SW1990 [22]
  Activity: Active
SW1990 [23]
  Activity: Active
[24]
  Activity: Non-Toxic

## Cc1noc(C)c1-c1ccc2c(c1)C(c1ccccc1)N(Cc1nc3c(C(N)=O)cccc3[nH]1)C(=O)N2C (stereo not given)
Mus musculus [25]
  inhibition: Active
Mus musculus [26]
  inhibition: Active
Mus musculus [27]
  inhibition: Active
Mus musculus [28]
  inhibition: Active
SW1990 [29]
  Activity: 12.83%
SW1990 [30]
  Activity: Active
[31]
  Activity: Non-Toxic
SW1990 [32]
  Activity: Active
Mus musculus [33]
  inhibition: Active
Mus musculus [34]
  inhibition: Active
Mus musculus [35]
  inhibition: Active
SW1990 [36]
  Activity: 3.62%
SW1990 [37]
  Activity: Active
Mus musculus [38]
  inhibition: Active
SW1990 [39]
  inhibition: Active
SW1990 [40]
  inhibition: Active
